Assay results as given in ChEMBL document CHEMBL1139733, “Aminopyridine carboxamides as c-Jun N-terminal kinase inhibitors: targeting the gatekeeper residue and beyond” (Bioorg Med Chem Lett, 2006).

Columns and labels:
[1] = target: Mitogen-activated protein kinase 8 (Homo sapiens, UniProt P45983); test: Inhibition of JNK1 by ATF2 phosphorylation assay; assay type: functional
[2] = target: Mitogen-activated protein kinase 9 (Homo sapiens, UniProt P45984); test: Inhibition of JNK2 by ATF2 phosphorylation assay; assay type: functional
[3] = target: c-Jun N-terminal kinase, JNK (Homo sapiens, UniProt P45983+P53779+P45984); test: Inhibition of PcJun phosphorylation in HepG2 cells; assay type: functional, cell-based

Sequence of Mitogen-activated protein kinase 9 (P45984 whole entry): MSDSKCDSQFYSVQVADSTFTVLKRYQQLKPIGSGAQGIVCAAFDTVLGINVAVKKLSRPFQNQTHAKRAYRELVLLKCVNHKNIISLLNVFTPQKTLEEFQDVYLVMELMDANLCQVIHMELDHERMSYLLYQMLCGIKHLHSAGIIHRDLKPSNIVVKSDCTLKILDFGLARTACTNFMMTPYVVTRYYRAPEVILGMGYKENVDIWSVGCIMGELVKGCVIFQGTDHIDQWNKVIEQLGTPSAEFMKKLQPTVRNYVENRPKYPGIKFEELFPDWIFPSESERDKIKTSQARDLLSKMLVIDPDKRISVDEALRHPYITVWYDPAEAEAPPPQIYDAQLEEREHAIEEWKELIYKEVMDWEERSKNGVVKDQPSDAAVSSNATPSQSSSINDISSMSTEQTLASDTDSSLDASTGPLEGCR
Sequence of Mitogen-activated protein kinase 8 (P45983 whole entry): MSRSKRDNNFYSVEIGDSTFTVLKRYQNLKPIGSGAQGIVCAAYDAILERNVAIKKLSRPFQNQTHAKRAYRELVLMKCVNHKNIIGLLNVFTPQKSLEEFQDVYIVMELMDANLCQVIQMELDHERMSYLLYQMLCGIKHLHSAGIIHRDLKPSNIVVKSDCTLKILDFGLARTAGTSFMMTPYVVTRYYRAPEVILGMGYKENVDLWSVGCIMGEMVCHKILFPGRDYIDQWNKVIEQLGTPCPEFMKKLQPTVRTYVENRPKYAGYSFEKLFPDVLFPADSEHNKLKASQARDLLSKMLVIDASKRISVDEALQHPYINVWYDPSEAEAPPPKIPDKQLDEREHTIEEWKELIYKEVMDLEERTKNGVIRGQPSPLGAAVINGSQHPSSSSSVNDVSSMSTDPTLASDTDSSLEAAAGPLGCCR

| SMILES | IC50 [1] [nM] | IC50 [2] [nM] | IC50 [3] [nM] |
| --- | --- | --- | --- |
| CS(=O)(=O)c1ccc(CNC(=O)c2cc(N)c(C#N)c(NCCN)n2)cc1 | 1600 | – | – |
| CS(=O)(=O)c1ccc(CNC(=O)c2cc(N)c(C#N)c(/C=C/CCO)n2)cc1 | 170 | 240 | 5300 |
| CC(C)Nc1nc(C(=O)NCc2ccc(S(C)(=O)=O)cc2)cc(N)c1C#N | 67 | 84 | 490 |
| CS(=O)(=O)c1ccc(CNC(=O)c2cc(N)c(C#N)c(NCCO)n2)cc1 | 93 | 150 | > 10000 |
| CS(=O)(=O)c1ccc(CNC(=O)c2cc(N)c(C#N)c(-c3ccc(C(=O)O)s3)n2)cc1 | 250 | 160 | > 10000 |
| COc1ccc(Oc2nc(C(=O)NCc3ccc(S(C)(=O)=O)cc3)cc(N)c2C#N)cc1 | 420 | 450 | – |
| C/C=C\c1nc(C(=O)NCc2ccc(S(C)(=O)=O)cc2)cc(N)c1C#N | 150 | 260 | 5500 |
| CC(C)COc1nc(C(=O)NCc2ccc(S(C)(=O)=O)cc2)cc(N)c1C#N | 88 | 370 | 700 |
| CCCCC#Cc1c(N)cc(C(=O)NCc2ccc(S(C)(=O)=O)cc2)nc1OCC | > 10000 | – | – |
| CS(=O)(=O)c1ccc(CNC(=O)c2cc(N)c(C#N)c(-c3ccsc3)n2)cc1 | 81 | 390 | 610 |
| CC(C)Oc1nc(C(=O)NCc2ccc(S(C)(=O)=O)cc2)cc(N)c1C#N | 15 | 38 | 250 |
| CS(=O)(=O)c1ccc(CNC(=O)c2cc(N)c(C#N)c(-c3ccsc3CO)n2)cc1 | 570 | 680 | 10800 |
| CS(=O)(=O)c1ccc(CNC(=O)c2cc(N)c(C#N)c(-c3ccsc3CNCc3ccccc3)n2)cc1 | 1990 | – | 8010 |
| CS(=O)(=O)c1ccc(CNC(=O)c2cc(N)c(C#N)c(NC3CC3)n2)cc1 | 32 | 69 | 1200 |
| C[C@H](CO)Nc1nc(C(=O)NCc2ccc(S(C)(=O)=O)cc2)cc(N)c1C#N | 180 | 320 | > 10000 |
| CS(=O)(=O)c1ccc(CNC(=O)c2cc(N)c(C#N)c(NCc3ccccc3)n2)cc1 | 820 | 4700 | – |
| CS(=O)(=O)c1ccc(CNC(=O)c2cc(N)c(C#N)c(NCCc3ccccc3)n2)cc1 | 260 | 1000 | 2700 |
| CS(=O)(=O)c1ccc(CNC(=O)c2cc(N)c(C#N)c(NCCNC(N)=O)n2)cc1 | 93 | – | > 10000 |
| CS(=O)(=O)c1ccc(CNC(=O)c2cc(N)c(C#N)c(-c3cccnc3)n2)cc1 | 320 | 340 | 7300 |
| CC(C)NC(=O)c1nc(C(=O)NCc2ccc(S(C)(=O)=O)cc2)cc(N)c1C#N | 430 | 120 | 2900 |
| CCOc1nc(C(=O)NCc2ccc(S(C)(=O)=O)cc2)cc(N)c1/C=C/C(C)(C)C | 2930 | 4160 | > 10000 |
| CCOc1nc(C(=O)NCc2ccc(S(C)(=O)=O)cc2)cc(N)c1/C=C/C#N | 410 | 1790 | 807 |
| CS(=O)(=O)c1ccc(CNC(=O)c2cc(N)c(C#N)c(-c3cncnc3)n2)cc1 | 620 | 860 | > 10000 |
| C/C=C/c1nc(C(=O)NCc2ccc(S(C)(=O)=O)cc2)cc(N)c1C#N | 48 | 230 | 890 |
| C#C/C=C/c1c(N)cc(C(=O)NCc2ccc(S(C)(=O)=O)cc2)nc1OCC | 79 | 300 | 1400 |
| CN(C)CCNc1nc(C(=O)NCc2ccc(S(C)(=O)=O)cc2)cc(N)c1C#N | 7300 | 9200 | – |
| CCOc1nc(C(=O)NCc2ccc(S(C)(=O)=O)cc2)cc(N)c1C(N)=O | 318 | 969 | 7540 |
| C[C@@H](CO)Nc1nc(C(=O)NCc2ccc(S(C)(=O)=O)cc2)cc(N)c1C#N | 22 | 30 | 2600 |

| SMILES | IC50 [1] [nM] | IC50 [2] [nM] | IC50 [3] [nM] |
| --- | --- | --- | --- |
| CS(=O)(=O)c1ccc(CNC(=O)c2cc(N)c(C#N)c(NC3CCC3)n2)cc1 | 85 | 160 | 620 |
| COc1cccc(-c2nc(C(=O)NCc3ccc(S(C)(=O)=O)cc3)cc(N)c2C#N)c1 | 430 | 600 | 1800 |
| CS(=O)(=O)c1ccc(CNC(=O)c2cc(N)c(C#N)c(NCCC(N)=O)n2)cc1 | 66 | 87 | > 10000 |
| CS(=O)(=O)c1ccc(CNC(=O)c2cc(N)c(C#N)c(-c3cccc(O)c3)n2)cc1 | 200 | 240 | 9400 |
| C=Cc1c(N)cc(C(=O)NCc2ccc(S(C)(=O)=O)cc2)nc1OCC | 1180 | 1460 | 4630 |
| CCCNC(=O)c1c(N)cc(C(=O)NCc2ccc(S(C)(=O)=O)cc2)nc1OCC | 5250 | – | – |
| CCOc1nc(C(=O)NCc2ccc(S(C)(=O)=O)cc2)cc(N)c1C#CCO | 1090 | – | 5700 |
| CS(=O)(=O)c1ccc(CNC(=O)c2cc(N)c(C#N)c(-c3cccc(Cl)c3)n2)cc1 | 1180 | 840 | 1200 |
| CS(=O)(=O)c1ccc(CNC(=O)c2cc(N)c(C#N)c(CCC(=O)O)n2)cc1 | 1640 | 6920 | – |
| CC(C)[C@@H](CO)Nc1nc(C(=O)NCc2ccc(S(C)(=O)=O)cc2)cc(N)c1C#N | 1500 | 1400 | – |
| CCOc1nc(C(=O)NCc2ccc(S(C)(=O)=O)cc2)cc(N)c1C#C/C=C/CO | 1550 | 4320 | 5240 |
| CS(=O)(=O)c1ccc(CNC(=O)c2cc(N)c(C#N)c(-c3cccc(S(C)(=O)=O)c3)n2)cc1 | 43 | 97 | 10500 |
| CS(=O)(=O)c1ccc(CNC(=O)c2cc(N)c(C#N)c(OCC3CC3)n2)cc1 | 23 | 47 | 560 |
| CS(=O)(=O)c1ccc(CNC(=O)c2cc(N)c(C#N)c(OCC3CCCC3)n2)cc1 | 390 | 610 | 490 |
| CS(=O)(=O)c1ccc(CNC(=O)c2cc(N)c(C#N)c(-c3ccncc3)n2)cc1 | 530 | 660 | – |
| CCOc1nc(C(=O)NCc2ccc(S(C)(=O)=O)cc2)cc(N)c1/C=C/c1ccccc1 | 2430 | 4130 | 6920 |
| CCOc1nc(C(=O)NCc2ccc(S(C)(=O)=O)cc2)cc(N)c1C#Cc1ccsc1 | 3430 | > 10000 | – |
| CS(=O)(=O)c1ccc(CNC(=O)c2cc(N)c(C#N)c(NC3CCCC3)n2)cc1 | 96 | 290 | 480 |
| CCOc1nc(C(=O)NCc2ccc(S(C)(=O)=O)cc2)cc(N)c1C#CCCO | 2240 | 4610 | 7360 |
| C#Cc1c(N)cc(C(=O)NCc2ccc(S(C)(=O)=O)cc2)nc1OCC | 350 | 300 | 1890 |
| CS(=O)(=O)c1ccc(CNC(=O)c2cc(N)c(C#N)c(NC(CO)CO)n2)cc1 | 76 | 100 | > 10000 |
| COCCNc1nc(C(=O)NCc2ccc(S(C)(=O)=O)cc2)cc(N)c1C#N | 120 | 210 | 5900 |
| CS(=O)(=O)c1ccc(CNC(=O)c2cc(N)c(C#N)c(/C=C/c3ccccc3)n2)cc1 | 1450 | 1290 | 350 |
| CC(=O)NCCNc1nc(C(=O)NCc2ccc(S(C)(=O)=O)cc2)cc(N)c1C#N | 59 | 81 | > 10000 |
| CS(=O)(=O)c1ccc(CNC(=O)c2cc(N)c(C#N)c(-c3ccoc3)n2)cc1 | 270 | 530 | 4300 |
| CS(=O)(=O)c1ccc(CNC(=O)c2cc(N)c(C#N)c(/C=C/C(=O)O)n2)cc1 | 300 | 430 | > 2500 |
| CS(=O)(=O)c1ccc(CNC(=O)c2cc(N)c(C#N)c(NCCCO)n2)cc1 | 54 | 180 | 8300 |
